Test results taken from US9051572B2, “Modulators of Itch ubiquitinase activity” (RYBOQUIN COMPANY LIMITED, priority 2005, dated 2015).
Peptide text beside a SMILES is read from it. * marks the point of attachment. Cbz = O=C(OCc1ccccc1)*

What was measured:
Type in all cases: cell-based, human
[1] = test system: TAp73α; assay: Steady state protein levels analysis with proteasome inhibitor in Hek293 cells co-transfected with Itch; settings: MG132 50 μM, 40 min
Experimental: The concentration of TAp73α, TAp73 ? and p53 was monitored by Western blotting. […] 25 μg of cell lysates were subjected to Western blotting. p73 proteins were detected by an anti-HA antibody. The same blots were re-probed with anti Myc antibody to detect Itch and with anti-Actin antibody to show equal loading.

[2] = test system: Itch; assay: Western blot of endogenous Itch after DNA damaging agents in Saos-2 cells; settings: 24 and 48 hours, 2 μM doxorubicin, 15 μM etoposide, 5 μM cisplatin
Experimental: (§1) FIG. 7 Itch is down regulated by DNA damaging agents. Saos-2 cells were treated with 2 μM doxorubicin (Doxo) for 24 or 48 hours then collected by trypsinization. Cells were lysed for western blotting (A) and half of the cells were ethanol fixed for apoptosis analysis (B). Western blots were performed with either anti-Itch (upper panel) or anti-p73 (lower panel) antibodies. Blots were stripped and re-probed with anti Lamin B antibody to show equal loading. Apoptosis was evaluated by flow cytometric analysis of PI stained cells. Non-treated controls (N.T.) are shown. H1299 cells transfected with HA-TAp73 ? (Con) are loaded as a control for p73 western blot.
(D) Western blot using anti-Itch antibody on Saos-2 cells treated for 24 and 48 hours with either 15 μM etoposide (Etopo) or 5 μM cisplatin (Cisp). Non-treated control cells are also shown (N.T.). Blots were stripped and re-probed with anti p73 antibody and Lamin B antibody to show equal loading.
Proteins were separated on SDS-PAGE and blotted onto nitrocellulose membranes. Filters were blocked with TBST 5% non-fat dry milk and incubated with primary antibodies for 2 hrs at room temperature (RT). Filters were incubated for 1 hour at RT using the appropriate horseradish peroxidase-conjugated secondary antibody (rabbit and mouse BioRad; goat Santa Cruz). Detection was performed with the enhanced chemiluminescence Supersignal West Pico (Pierce). […] Endogenous Itch was detected with a mouse monoclonal antibody (BD Bioscience), Actin (sc-1615) polyclonal goat antibody (Santa Cruz), Lamin B (sc-6217) goat polyclonal antibody (Santa Cruz), Hsp70 (sc-1060) polyclonal goat antibody (Santa Cruz), β-Tubulin (sc-9104) polyclonal rabbit antibody (Santa Cruz), p21 (sc-756) polyclonal rabbit antibody (Santa Cruz), p53 DO-1 and Pab1801 monoclonal mouse antibodies (Santa Cruz). c-Myc-tagged constructs were detected or immuno-precipitated with the sc-40 monoclonal mouse antibody (Santa Cruz), HA-tagged with the sc-805 polyclonal rabbit antibody (Santa Cruz), and the Flag-tagged constructs with the M2 monoclonal mouse antibody (Sigma).

[3] = test system: TAp73; assay: Western blot of endogenous p73 after doxorubicin in Saos-2 cells; settings: 2 μM doxorubicin, 24 or 48 hours
Experimental: as §1
Proteins were separated on SDS-PAGE and blotted onto nitrocellulose membranes. Filters were blocked with TBST 5% non-fat dry milk and incubated with primary antibodies for 2 hrs at room temperature (RT). Filters were incubated for 1 hour at RT using the appropriate horseradish peroxidase-conjugated secondary antibody (rabbit and mouse BioRad; goat Santa Cruz). Detection was performed with the enhanced chemiluminescence Supersignal West Pico (Pierce). Anti-p73 is a monoclonal antibody (ER15) (Neomarkers). […]

[4] = test system: Saos-2 cells; assay: Apoptosis by flow cytometric analysis of PI stained cells after doxorubicin; settings: 2 μM doxorubicin, 24 or 48 hours
Experimental: as §1
Human embryonal kidney cells (Hek293), HeLa cells and MEFs were grown in Dulbecco's modified Eagle medium (DMEM) (GibcoBRL); the human lung carcinoma cells H1299 and the human osteosarcoma cells Saos-2 were cultured in RPMI (GibcoBRL). MEF Itch−/− cells were prepared from Itch−/− mice (Y—C-Liu) or they were generous gift from Neil Copeland, Lynda Matesic, Nancy Jenkins. All media were supplemented with 10% (v/v) fetal bovine serum (FBS) (GibcoBRL). Saos-2-TAp73 ? were a kind gift of K. Vousden (Nakano, 2000). Saos-2-ΔNp73 ? were generated as described before (Maisse et al., 2004). […] Apoptosis was analysed by flow cytometric evaluation of DNA fragmentation.

Structure (SMILES) | steady state levels of TAp73α in presence of Itch [1] | endogenous Itch protein levels [2] | endogenous TAp73 levels [3] | apoptosis [4]
CC(C)C[C@@H](C=O)NC(=O)[C@H](CC(C)C)NC(=O)[C@H](CC(C)C)NC(=O)OCc1ccccc1 [MG132] (Cbz-Leu-Leu-Leu-aldehyde) | blocks the Itch-mediated TAp73α degradation | – | – | –
N.N.[Cl][Pt][Cl] [cisplatin] | – | dramatic reduction in Itch protein levels | – | –
COc1cccc2c1C(=O)c1c(O)c3c(c(O)c1C2=O)C[C@@](O)(C(=O)CO)C[C@@H]3O[C@H]1C[C@H](N)[C@H](O)[C@H](C)O1 [doxorubicin] | – | down-regulated | increase in endogenous TAp73 levels | increase in apoptosis
COc1cc([C@@H]2c3cc4c(cc3[C@@H](O[C@@H]3O[C@@H]5CO[C@@H](C)O[C@H]5[C@H](O)[C@H]3O)[C@H]3COC(=O)[C@H]23)OCO4)cc(OC)c1O [etoposide] | – | dramatic reduction in Itch protein levels | – | –
